Values joined by “and” are separate entries in the source; they are usually repeats but may differ in a detail not shown here. Identical values can stand only once. Toxic doses and inconclusive results are not listed.

The text below walks through data of PubChem BioAssay AID330 (DTP/NCI, 2004).

The assay concerns P388 leukemia ip, CD2F1 mice, survival T/C. Kind of assay: NCI In Vivo Anticancer Drug Screen. Data for tumor model P388 Leukemia (intraperitoneal) in CD2F1 (CDF1) mice. The note with it: endpoint: median survival time, higher = longer survival. In short, it runs like this: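 Mice carrying the transplanted tumor received test compound or vehicle. Survival was recorded in each group, and the value is the treated-group measurement divided by that of the vehicle-treated control group.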

Setting [1] is: dose: 25.0 mg/kg/injection, schedule: Q01DX005 (ip), vehicle: Klucel (hydroxypropylcellulose) (HPC).
The mark [2] stands for this setting: dose: 60.0 mg/kg/injection, schedule: Q01DX005 (ip), vehicle: saline with Tween-80.
The mark [3] stands for this setting: dose: 120.0 mg/kg/injection, schedule: Q01DX005 (ip), vehicle: saline with Tween-80.
Where [4] appears, read: dose: 240.0 mg/kg/injection, schedule: Q01DX005 (ip), vehicle: saline with Tween-80.
Setting [5] is: dose: 50.0 mg/kg/injection, schedule: Q01DX009 (ip), vehicle: Klucel (hydroxypropylcellulose) (HPC).
[6] abbreviates: dose: 100.0 mg/kg/injection, schedule: Q01DX009 (ip), vehicle: Klucel (hydroxypropylcellulose) (HPC).
Where [7] appears, read: dose: 200.0 mg/kg/injection, schedule: Q01DX009 (ip), vehicle: Klucel (hydroxypropylcellulose) (HPC).
Setting [8] is: dose: 50.0 mg/kg/injection, schedule: Q01DX005 (ip), vehicle: saline with Tween-80.
Setting [9] is: dose: 100.0 mg/kg/injection, schedule: Q01DX005 (ip), vehicle: saline with Tween-80.
[10] abbreviates: dose: 200.0 mg/kg/injection, schedule: Q01DX005 (ip), vehicle: saline with Tween-80.

Take `CCCCCCCN(CCCCCCC)CC(O)c1cc2ccc(Cl)cc2nc1-c1ccc(Cl)cc1` (configuration not stated): the T/C was 90 % of control (dose: 100.0 mg/kg/injection, schedule: Q01DX001 (ip), vehicle: saline sonified); 90 % of control (dose: 200.0 mg/kg/injection, schedule: Q01DX001 (ip), vehicle: saline sonified); 104 % of control (dose: 400.0 mg/kg/injection, schedule: Q01DX001 (ip), vehicle: saline sonified).

Consider `C=C1C(=O)O[C@@H]2[C@@H]3O[C@@](C)(CC[C@H](OC(C)=O)[C@@H]3CO)C[C@@H](OC(=O)/C(=C\C)COC(C)=O)[C@@H]12`, for which the T/C under setting [1] was 101 % of control.

Regarding `C1CCCNCCNCCNCC1`, the T/C is, setting by setting: under setting [2], 98 % of control; under setting [3], 100 % of control; under setting [4], 92 % of control.

Regarding `CCC[CH2][Sn]([CH2]CCC)([S]/C(C#N)=N/N=C/c1ccc(N(C)C)cc1)[S]/C(C#N)=N/N=C/c1ccc(N(C)C)cc1`, where the note is “dose: 7.5 mg/kg/injection, schedule: Q01DX005 (ip), vehicle: saline with Tween-80”, the T/C was 117 % of control.

Consider `O=c1[nH]c(=O)c2nc(-c3cccnc3)cnc2[nH]1`, for which the T/C (dose: 50.0 mg/kg/injection, schedule: Q01DX009 (ip), vehicle: saline) was 103 % of control and 120 % of control.

With `COc1ccc(C(c2cc3c(cc2O)OCO3)N2CCCCC2)cc1OC` (configuration not stated), the T/C is 107 % of control under setting [2], 110 % of control under setting [3] and 120 % of control under setting [4].

On to `CC1CC(C)(C)N=C(C2(c3ccccc3)CC2)O1` (configuration not stated), for which the T/C is 109 % of control (dose: 50.0 mg/kg/injection, schedule: Q01DX009 (ip), vehicle: saline with Tween-80); 109 % of control (dose: 100.0 mg/kg/injection, schedule: Q01DX009 (ip), vehicle: saline with Tween-80); 100 % of control (dose: 200.0 mg/kg/injection, schedule: Q01DX009 (ip), vehicle: saline with Tween-80).

With `CC(C)NC(=O)c1ccc(C/[N+]([O-])=C/c2ccccc2)cc1`, the T/C (dose: 50.0 mg/kg/injection, schedule: Q01DX009 (ip), vehicle: distilled water + Tween-80) was 95 % of control; the T/C (dose: 50.0 mg/kg/injection, schedule: Q01DX009 (ip), vehicle: other) was 121 % of control; the T/C (dose: 100.0 mg/kg/injection, schedule: Q01DX009 (ip), vehicle: distilled water + Tween-80) was 92 % of control and 95 % of control; the T/C (dose: 100.0 mg/kg/injection, schedule: Q01DX009 (ip), vehicle: other) was 103 % of control; the T/C (dose: 200.0 mg/kg/injection, schedule: Q01DX009 (ip), vehicle: distilled water + Tween-80) is 89 % of control and 92 % of control; the T/C (dose: 200.0 mg/kg/injection, schedule: Q01DX009 (ip), vehicle: other) is 116 % of control. Besides, the T/C is, setting by setting: (dose: 400.0 mg/kg/injection, schedule: Q01DX009 (ip), vehicle: distilled water + Tween-80) 92 % of control; (dose: 800.0 mg/kg/injection, schedule: Q01DX009 (ip), vehicle: other) 153 % of control.

Take `O=C1OC(Oc2ccccc2)c2cc3c(cc21)OCO3` (configuration not stated): the T/C was 90 % of control under setting [2], 90 % of control under setting [3] and 99 % of control under setting [4].

Consider `O/N=C(\CC(O)(C(F)(F)F)C(F)(F)F)c1cccs1`, for which the T/C is 100 % of control (dose: 100.0 mg/kg/injection, schedule: Q04DX003 (ip), vehicle: saline with Tween-80); 95 % of control (dose: 200.0 mg/kg/injection, schedule: Q04DX003 (ip), vehicle: saline with Tween-80); 108 % of control (dose: 400.0 mg/kg/injection, schedule: Q04DX003 (ip), vehicle: saline with Tween-80).

On to `O=c1[nH]c2cc([N+](=O)[O-])ccc2nc1/C=C(\O)c1cccnc1`, for which the T/C by setting is: (dose: 60.0 mg/kg/injection, schedule: Q01DX005 (ip), vehicle: Klucel (hydroxypropylcellulose) (HPC)) 94 % of control; (dose: 120.0 mg/kg/injection, schedule: Q01DX005 (ip), vehicle: Klucel (hydroxypropylcellulose) (HPC)) 88 % of control; (dose: 240.0 mg/kg/injection, schedule: Q01DX005 (ip), vehicle: Klucel (hydroxypropylcellulose) (HPC)) 94 % of control.

Turning to `COc1cccc2c1C(=O)c1c(O)c3c(c(O)c1C2=O)CC(O)(C(C)NCCCO)CC3OC1CC(N)C(O)C(C)O1` (configuration not stated), the T/C (dose: 1.5 mg/kg/injection, schedule: Q01DX009 (ip), vehicle: water) was 111 % of control; the T/C (dose: 24.0 mg/kg/injection, schedule: Q01DX009 (ip), vehicle: water) was 168 % of control and 172 % of control; the T/C (dose: 48.0 mg/kg/injection, schedule: Q01DX009 (ip), vehicle: water) is 173 % of control.

Take `Cc1cccc(-[n+]2noc(N)n2)c1`: the T/C by setting is: (dose: 3.13 mg/kg/injection, schedule: Q01DX009 (ip), vehicle: water) 100 % of control; (dose: 6.25 mg/kg/injection, schedule: Q01DX009 (ip), vehicle: water) 100 % of control; (dose: 12.5 mg/kg/injection, schedule: Q01DX009 (ip), vehicle: water) 114 % of control; (dose: 25.0 mg/kg/injection, schedule: Q01DX009 (ip), vehicle: water) 152 % of control; (dose: 50.0 mg/kg/injection, schedule: Q01DX009 (ip), vehicle: water) 167 % of control.

In the case of `O=C(NC(CO)C(=O)O)OCc1ccccc1` (configuration not stated), the T/C runs as follows: under setting [5], 94 % of control; under setting [6], 99 % of control; under setting [7], 89 % of control.

On to `COC1=CC(=O)C(CCC(C)=O)=CC1=O`, for which the T/C (dose: 3.75 mg/kg/injection, schedule: Q01DX005 (ip), vehicle: Klucel (hydroxypropylcellulose) (HPC)) is 99 % of control; the T/C (dose: 7.5 mg/kg/injection, schedule: Q01DX005 (ip), vehicle: Klucel (hydroxypropylcellulose) (HPC)) was 98 % of control; the T/C (dose: 15.0 mg/kg/injection, schedule: Q01DX005 (ip), vehicle: Klucel (hydroxypropylcellulose) (HPC)) was 94 % of control.

For `CNC(=S)N/N=C/c1ccc([N+](=O)[O-])s1`, the T/C runs as follows: (dose: 6.25 mg/kg/injection, schedule: Q01DX009 (ip), vehicle: saline with Tween-80) 99 % of control; (dose: 12.5 mg/kg/injection, schedule: Q01DX009 (ip), vehicle: saline with Tween-80) 89 % of control; (dose: 25.0 mg/kg/injection, schedule: Q01DX009 (ip), vehicle: saline with Tween-80) 88 % of control.

For `O=S(=O)(Nc1ncccn1)c1ccc(N=Cc2c3ccccc3nc3cc(Cl)ccc23)cc1`, the T/C is, setting by setting: under setting [8], 91 % of control; under setting [9], 90 % of control; under setting [10], 89 % of control.

`CC1=CC(=O)C(O)C2(C)C1CC1OC(=O)C(OC(=O)/C=C(\C)C(C)C)C3C(C)C(O)C4(O)OCC13C42` (configuration not stated): the T/C is 113 % of control (dose: 0.25 mg/kg/injection, schedule: Q01DX005 (ip), vehicle: saline + alcohol); 121 % of control (dose: 0.5 mg/kg/injection, schedule: Q01DX005 (ip), vehicle: saline + alcohol); 121 % of control (dose: 1.0 mg/kg/injection, schedule: Q01DX005 (ip), vehicle: saline + alcohol).

With `Nc1c[nH]c2ccccc2c1=O`, the T/C is 104 % of control under setting [5], 101 % of control under setting [6] and 100 % of control under setting [7].

Take `COc1ccc2c(c1OC)N(C)CC1=C2OC(C)(C)C2C1CC1(C)CC2c2c(c3ccc(OC)c(OC)c3n(C)c2=O)O1` (configuration not stated): the T/C was 90 % of control (dose: 12.5 mg/kg/injection, schedule: Q01DX005 (ip), vehicle: Klucel (hydroxypropylcellulose) (HPC)); 93 % of control under setting [1]; 90 % of control (dose: 50.0 mg/kg/injection, schedule: Q01DX005 (ip), vehicle: Klucel (hydroxypropylcellulose) (HPC)).

Consider `CCC1=CC2CN(CCc3c([nH]c4ccccc34)C(C(=O)OC)(c3cc4c(cc3OC)N(C=O)C3C(O)(C(=O)NC)C(OC(C)=O)C5(CC)C=CCN6CCC43C65)C2)C1` (configuration not stated), for which the T/C is 150 % of control (dose: 1.0 mg/kg/injection, schedule: Q01DX001 (ip), vehicle: water); 153 % of control (dose: 2.0 mg/kg/injection, schedule: Q01DX001 (ip), vehicle: water); 160 % of control (dose: 4.0 mg/kg/injection, schedule: Q01DX001 (ip), vehicle: water).

Turning to `O=C(/C=C/c1ccc2c(c1)OCO2)c1cc(Cl)ccc1O`, the T/C is, setting by setting: under setting [8], 93 % of control; under setting [9], 98 % of control; under setting [10], 102 % of control.
